Tests used:
Homo sapiens [1] = organism: Homo sapiens; test: Selectivity ratio of EC50 for inhibition of [3H]-S-citalopram dissociation from SERT allosteric modulator site (S2) (unknown origin) expressed in African green monkey COS1 cell membranes to IC50 for [3H]5-HT uptake by SERT primary site (S1) (unknown origin) expressed in African green monkey COS1 cells; type: cell-based
[2] = target: T1, Sodium-dependent serotonin transporter (Homo sapiens, UniProt P31645)
[3] = target: T1, Sodium-dependent serotonin transporter; test: Inhibition of [3H]5-HT uptake by SERT primary site (S1) (unknown origin) expressed in African green monkey COS1 cells after 10 mins by TopCount scintillation counting method; type: cell-based
[4] = target: T1, Sodium-dependent serotonin transporter; remark: listed apart in the source
Homo sapiens [5] = organism: Homo sapiens; test: Selectivity ratio of EC50 for inhibition of [3H]-S-citalopram dissociation from human SERT allosteric modulator site (S2) expressed in African green monkey COS7 cell membranes to IC50 for displacement of [3H]-S-citalopram from human SERT primary site (S1) expressed in African green monkey COS7 cell membranes
[6] = target: T1, Sodium-dependent serotonin transporter; remark: listed apart in the source

T1 sequence (P31645 whole entry): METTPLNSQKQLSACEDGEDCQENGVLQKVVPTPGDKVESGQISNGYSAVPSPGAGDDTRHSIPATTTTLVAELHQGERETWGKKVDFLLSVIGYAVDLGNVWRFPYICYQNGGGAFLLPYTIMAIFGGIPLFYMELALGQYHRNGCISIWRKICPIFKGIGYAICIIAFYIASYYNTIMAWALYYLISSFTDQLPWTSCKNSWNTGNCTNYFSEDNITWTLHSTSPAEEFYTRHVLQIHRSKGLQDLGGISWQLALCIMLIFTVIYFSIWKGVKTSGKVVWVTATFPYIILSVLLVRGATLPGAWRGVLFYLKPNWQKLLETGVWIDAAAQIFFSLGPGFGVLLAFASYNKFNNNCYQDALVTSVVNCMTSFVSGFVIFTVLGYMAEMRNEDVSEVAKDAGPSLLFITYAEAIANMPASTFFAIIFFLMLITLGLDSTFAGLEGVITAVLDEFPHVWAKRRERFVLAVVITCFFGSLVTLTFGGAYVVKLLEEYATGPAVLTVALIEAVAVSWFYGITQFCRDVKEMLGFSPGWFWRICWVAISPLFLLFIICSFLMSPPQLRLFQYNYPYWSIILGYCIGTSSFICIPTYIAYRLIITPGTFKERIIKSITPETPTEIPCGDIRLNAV

SMILES | Selectivity ratio (Homo sapiens [1]) | EC50 [2] | IC50 [3] | IC50 [4] | Selectivity ratio (Homo sapiens [5]) | EC50 [6]
CN(C)CCCC1(c2cccc3ccccc23)OCc2cc(C#N)ccc21 (single isomer, unassigned; enantiomer 2) [listing 1 of 2 here] | 68 |  |  |  |  | 
CN(C)CCCC1(c2ccc3ccccc3c2)OCc2cc(C#N)ccc21 (stereo in doubt; 1) [listing 1 of 2 here] |  | 68 µM | 0.034 µM |  |  | 
CCCN(C)CCC[C@@]1(c2ccc(F)cc2)OCc2cc(C#N)ccc21 |  |  |  | 0.19 µM | 31 | 5.9 µM
CN(C)CCCC1(c2cccc3ccccc23)OCc2cc(C#N)ccc21 (single isomer, unassigned; enantiomer 2) [listing 2 of 2 here] |  | 19 µM | 0.28 µM |  |  | 
CN(C)CCCC1(c2cc(Cl)cc(Cl)c2)OCc2ccccc21 (stereo in doubt; 4) [listing 1 of 2 here] | 44 |  |  |  |  | 
CN(C)CCCC1(c2ccc3ccccc3c2)OCc2cc(C#N)ccc21 (single isomer, unassigned) [listing 1 of 2 here] | 4100 |  |  |  |  | 
CN(C)CCCC1(c2ccc(F)cc2)OCc2ccc3ccccc3c21 (stereo not drawn) | 3200 | 38 µM | 0.012 µM |  |  | 
CN(C)CCCC1(c2cccc3ccccc23)OCc2cc(C#N)ccc21 (stereo in doubt; 2) [listing 1 of 2 here] |  | 19 µM | 0.25 µM |  |  | 
CCCCN(C)CCC[C@]1(c2ccc(F)cc2)OCc2cc(C#N)ccc21 |  |  |  | 1.1 µM | 13 | 14.5 µM
CN(C)CCCC1(c2cc(Cl)cc(Cl)c2)OCc2ccccc21 (single isomer, unassigned; enantiomer 1) [listing 1 of 2 here] |  | 8.8 µM | 0.35 µM |  |  | 
CN(C)CCCC1(c2ccc3ccccc3c2)OCc2cc(C#N)ccc21 (single isomer, unassigned; enantiomer 2) [listing 1 of 2 here] |  | 55 µM | 0.15 µM |  |  | 
CN(C)CCCC1(c2ccc(Cl)c(Cl)c2)OCc2ccccc21 (stereo not drawn) | 2300 | 29.6 µM | 0.013 µM |  |  | 
CN(C)CCCC1(c2ccc(F)cc2)OCc2cc3ccccc3cc21 (stereo not drawn) | 12000 | 95 µM | 0.008 µM |  |  | 
CCCCN(C)CCC[C@@]1(c2ccc(F)cc2)OCc2cc(C#N)ccc21 |  |  |  | 0.16 µM | 18 | 2.9 µM
CN(C)CCCC1(c2ccc3ccccc3c2)OCc2cc(C#N)ccc21 (single isomer, unassigned; enantiomer 2) [listing 2 of 2 here] | 370 |  |  |  |  | 
CN(C)CCCC1(c2cc(Cl)cc(Cl)c2)OCc2ccccc21 (stereo in doubt; 4) [listing 2 of 2 here] |  | 15 µM | 0.34 µM |  |  | 
CCN(C)CCC[C@@]1(c2ccc(F)cc2)OCc2cc(C#N)ccc21 |  |  |  | 0.28 µM | 28 | 7.7 µM
CN(C)CCCC1(c2ccc(F)cc2)OCc2c1ccc1ccccc21 (stereo not drawn) | 7800 | 31 µM | 0.004 µM |  |  | 
CCCN(C)CCC[C@]1(c2ccc(F)cc2)OCc2cc(C#N)ccc21 |  |  |  | 2.4 µM | 8.5 | 20.3 µM
CCCCCN(C)CCC[C@@]1(c2ccc(F)cc2)OCc2cc(C#N)ccc21 |  |  |  | 0.075 µM | 21 | 1.6 µM
CN(C)CCCC1(c2ccc3ccccc3c2)OCc2cc(C#N)ccc21 (single isomer, unassigned) [listing 2 of 2 here] |  | 41 µM | 0.01 µM |  |  | 
CN(C)CCCC1(c2ccc3ccccc3c2)OCc2cc(C#N)ccc21 (stereo in doubt; 1) [listing 2 of 2 here] | 2000 |  |  |  |  | 
CN(C)CCCC1(c2cc(Cl)cc(Cl)c2)OCc2ccccc21 (single isomer, unassigned; enantiomer 2) [listing 1 of 2 here] | 67 |  |  |  |  | 
CN(C)CCCC(=O)c1ccc2c(c1)COC2(CCCN(C)C)c1ccc(F)cc1 (stereo not drawn) | 450000 | 714 µM | 0.0016 µM |  |  | 
CN(C)CCCC1(c2cccc3ccccc23)OCc2cc(C#N)ccc21 (stereo in doubt; 2) [listing 2 of 2 here] | 76 |  |  |  |  | 
CN(C)CCCC1(c2cccc3ccccc23)OCc2cc(C#N)ccc21 (single isomer, unassigned; enantiomer 1) [listing 1 of 2 here] |  | 14 µM | 0.74 µM |  |  | 
CN(C)CCCC1(c2cc(Cl)cc(Cl)c2)OCc2ccccc21 (single isomer, unassigned; enantiomer 1) [listing 2 of 2 here] | 25 |  |  |  |  | 
CN(C)CCCC1(c2cc(Cl)cc(Cl)c2)OCc2ccccc21 (single isomer, unassigned; enantiomer 2) [listing 2 of 2 here] |  | 20 µM | 0.3 µM |  |  | 
CCN(C)CCC[C@]1(c2ccc(F)cc2)OCc2cc(C#N)ccc21 |  |  |  | 2.3 µM | 8.7 | 19.9 µM
CN(C)CCCC1(c2cccc3ccccc23)OCc2cc(C#N)ccc21 (single isomer, unassigned; enantiomer 1) [listing 2 of 2 here] | 19 |  |  |  |  | 

Reference: ChEMBL document CHEMBL4000221 (Bioorg Med Chem Lett, 2017)
